Values joined by “and” are separate entries in the source; they are usually repeats but may differ in a detail not shown here. Identical values can stand only once. Marks after values point to notes of the source that are not given here.
Experiments:
acid ceramidase = assay: Acid ceramidase of MDCK cell homogenate; type: biochemical, canine
Method: (§1) Acid and neutral ceramidases were assayed under conditions like those above, but the medium contained 110 μM [1-^14C]decanoyl sphingosine (10^5 cpm) in 340 μM dioleoylphosphatidylcholine liposomes and 0.34 mg of MDCK cellular protein homogenate. […] After 60 min in the ultrasonic bath, 3 ml of C-M 2:1, carrier decanoic acid, and 0.6 ml of 0.9% saline were added and the lipids in the lower layer were separated by TLC with C-HOAc 9:1. The liberated decanoic acid was scraped off the glass plate and counted.

Acid SMase = assay: Acid sphingomyelinase of MDCK cells; type: biochemical, canine
Method: Acid and neutral SMase assays were based on the procedures of Gatt et al. (Gatt, S. et al., “Assay of Enzymes of Lipid Metabolism With Colored and Fluorescent Derivatives of Natural Lipids,” Meth. Enzymol., 72:351-375 (1981)), using liposomes containing NBD-SM dispersed like the labeled ceramide (10 μM substrate and 30 μM lecithin). The assay medium for the neutral enzyme also contained 50 mM Tris-Cl^− (pH 7.4), 25 mM KCl, 5 mM MgCl2 and 0.29 mg of MDCK cell protein in a total volume of 0.25 ml. Incubation was at 37° C. for 30 min in the ultrasonic bath, then the fluorescent product, NBD-ceramide, was isolated by partitioning the assay mixture with 0.45 ml 2-propanol, 1.5 ml heptane, and 0.2 ml water. After centrifugation, a trace of contaminating NBD-SM was removed from 0.9 ml of the upper layer by washing with 0.35 ml water. The upper layer was analyzed with a fluorometer (460 nm excitation, 515 nm emission).
[…] The resultant ceramide was determined as above.

neutral ceramidase = assay: Neutral ceramidase of MDCK cell homogenate; type: biochemical, canine
Method: as §1

MDCK cells = assay: MDCK cell growth (cellular protein per dish); type: cell-based, canine; conditions: duplicate dishes
Method: For the experiments with labeled thymidine, each 8.5 cm dish contained 500,000 Madin-Darby canine kidney (MDCK) cells in 8 ml of Dulbecco modified essential supplemented medium. […] The control cells were also incubated in the presence of BSA. The cells were washed with phosphate/saline and trichloroacetic acid, then scraped off the dishes, dissolved in alkali, and analyzed for protein and DNA incorporated tritium. [Methyl-^3H]thymidine (10 μCi) was added 4 h prior to harvesting.

[1] = tested on: GlcCer synthase of MDCK cell homogenates; assay: Inhibition of ceramide glucosyltransferase (GlcCer synthase) of MDCK cell homogenates; type: biochemical, canine; conditions: for Inhibition at 5 μM: 5 μM inhibitor, triplicate ± SD, samples partly isomer mixtures
How it was run: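 MDCK cell sonicate (~0.2 mg protein) incubated with octanoyl sphingosine (85 μg, in dioleoylphosphatidylcholine/sulfatide liposomes) and UDP-[^3H]glucose in a thermostatted ultrasonic bath. Aromatic inhibitors were dried into the tube; aliphatic inhibitors were incorporated in the substrate liposomes.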

Structure (SMILES) | Ceramidase pH 4.5, enzyme activity (% of control) (acid ceramidase; 5 μM) | Ceramidase pH 4.5, enzyme activity (% of control) (acid ceramidase; 50 μM) | Sphingomyelinase pH 4.5, enzyme activity (% of control) (Acid SMase; 5 μM) | Sphingomyelinase pH 4.5, enzyme activity (% of control) (Acid SMase; 50 μM) | Ceramidase pH 7.4, enzyme activity (% of control) (neutral ceramidase; 5 μM) | Ceramidase pH 7.4, enzyme activity (% of control) (neutral ceramidase; 50 μM) | Protein (MDCK cells; 0.4 μM in growth medium) | Protein (MDCK cells; 4 μM in growth medium) | Inhibition at 5 μM [1] [%] | degree of inhibition of GlcCer synthase ([1]; 6 μM, inhibitor incorporated into the substrate liposomes) [%]
CCCCCCCCCCCCCCCC(=O)NC(CN1CCCC1)C(O)c1ccccc1 (racemic) [BML-129] | 108 ± 8 % of control | 171 ± 26^a % of control | 108 ± 4 % of control | 97 ± 3 % of control | 100 ± 0 % of control | 99 ± 2 % of control | 538 μg/dish and 500 μg/dish | 396 μg/dish and 311 μg/dish | 15 | –
CCCCCCCCCCCCCCCC(=O)NC(CN1CCCC1)C(O)c1ccccc1 (racemic) [BML-130] | 107 ± 11 % of control | 160 ± 21^a % of control | 109 ± 1 % of control | 114 ± 2 % of control | 100 ± 15 % of control | 100 ± 15 % of control | 544 μg/dish and 538 μg/dish | 160 μg/dish and 268 μg/dish | 79 | 89±0.6
